Results published in patent US8895738B2, “Mesoionic pyrido [1, 2-A] pyrimidine pesticides” (E I du Pont de Nemours and Company, priority 2010, dated 2014).
Structures can show the parent of a compound that is named as a salt.

Key:
Format in all cases: in vivo
[1] = test system: Rice plants (indica cultivar); assay: Test M: vigor of direct seeded rice crop outdoors, An Giang, Vietnam; settings: all application rates (6.25, 12.5, 25 or 50 g a.i./ha) with 30 g a.i./ha indoxacarb and 20 g a.i./ha chlorantraniliprole; 18 days after application; Nilaparvata lugens level very low
Procedure: To evaluate the effect of application of a compound of the invention on the vigor of rice crops grown under outdoor conditions, Tests 1 through 0 were conducted. “a.i.” refers to the amount of active ingredient applied.
Rice plants (indica cultivar) were direct seeded into flooded 6 m×5 m test plots of clay loam soil in An Giang Province of Vietnam shortly before the monsoon, and grown using local agronomic practices. After 42 days, at the beginning of the wet season, aqueous mixtures containing 30 g a.i./ha of indoxacarb in form of STEWARD® Insecticide, 20 g a.i./ha of chlorantraniliprole, and 6.25, 12.5, 25 or 50 g a.i./ha of Compound 3 were applied to the foliage of the rice plants at in a spray volume of 400 L/ha using a motorized sprayer. Plots of control rice plants were sprayed with an aqueous mixture containing 30 g a.i./ha of indoxacarb in form of STEWARD® Insecticide and 20 g a.i./ha of chlorantraniliprole (i.e. no Compound 3). Each treatment and control was replicated three times, and the plots were arranged in a randomized complete block design. At the time of application of Compound 3, the pest level of rice brown planthopper (Nilaparvata lugens) was very low.

[2] = test system: potato leafhopper (Empoasca fabae); assay: Test E: control of potato leafhopper on Soleil bean plant, contact and/or systemic; settings: 144 h, assessed after 6 days, read-out: control efficacy: mortality
Procedure: For evaluating control of potato leafhopper (Empoasca fabae) through contact and/or systemic means, the test unit consisted of a small open container with a 5-6-day-old Soleil bean plant (primary leaves emerged) inside. White sand was added to the top of the soil and one of the primary leaves was excised prior to application.
Test compounds were formulated and sprayed at 250, 50, 10 and/or 2 ppm, and the tests were replicated three times as described for Test A. After spraying, the test units were allowed to dry for 1 h before they were post-infested with 5 potato leafhoppers (18-21-day-old adults). A black, screened cap was placed on the top of each test unit, and the test units were held for 6 days in a growth chamber at 24° C. and 70% relative humidity. Each test unit was then visually assessed for insect mortality.

[3] = test system: green peach aphid (Myzus persicae); assay: Test B: control of green peach aphid on radish plant, contact and/or systemic; settings: 144 h, assessed after 6 days
Source text: For evaluating control of green peach aphid (Myzus persicae) through contact and/or systemic means, the test unit consisted of a small open container with a 12-15-day-old radish plant inside. This was pre-infested by placing on a leaf of the test plant 30-40 aphids on a piece of leaf excised from a culture plant (cut-leaf method). The aphids moved onto the test plant as the leaf piece desiccated. After pre-infestation, the soil of the test unit was covered with a layer of sand.
Test compounds were formulated and sprayed at 250, 50 and/or 10 ppm as described for Test A. The applications were replicated three times. After spraying of the formulated test compound, each test unit was allowed to dry for 1 h and then a black, screened cap was placed on top. The test units were held for 6 days in a growth chamber at 19-21° C. and 50-70% relative humidity. Each test unit was then visually assessed for insect mortality.

[4] = test system: maize plants (Prairie Hybrid 2431 organic field corn); assay: Test P: vigor (height) of maize plants in greenhouse in absence of pest pressure, surface drench
Procedure: In this test, the effect of a compound of the invention on the vigor of maize plants grown in a greenhouse in absence of pest pressure was measured.
Single maize seeds (Prairie Hybrid 2431 organic field corn) were planted 2.0 to 2.5 cm deep in 10 cm×10 cm×8 cm plastic pots containing either Redi-Earth sphagnum peat moss-based potting media (Sun Gro Horticulture Canada Ltd., Vancouver, British Columbia) or a 50/50 mixture of Matapeake soil and sand. Seeded pots were initially watered to a 5 cm depth and placed in a growth chamber maintained at 25° C. within a 16 h light/8 h dark photoperiod. The pots were watered whenever the soil surface dried.
After 8 days from initial watering, the potted plants were treated by applying as a surface drench 40 mL of an aqueous treatment mixture containing either 0.2 or 2.5 mg of Compound 3. To the pots of untreated control plants, 40 mL of tap water was similarly applied. Treatments and untreated controls were replicated 10 times.
Treated and untreated plants were then arranged in a complete randomized block design in a greenhouse maintained at 25.6-27.8° C. during the day and 23.0-25.0° C. at night. Supplemental lighting was added when outside light levels dropped below 200 watts m^−2 during a 16-h growing period, except that no supplemental lighting was activated when outside light energy had already accumulated to more than 5000 w h m^−2 during the growing period. Greenhouse shading closed when outside light levels rose above 600 watts m^−2 for more than 20 minutes.
No modifications to relative humidity were made. Tap water irrigation was provided twice daily as needed to maintain soil moisture. Every second or third day the plants were fertilized with irrigation water containing 100 ppm N—P—K from Peters® soluble 20-20-20 general purpose fertilizer (The Scotts Company, Marysville, Ohio, U.S.A.). The applied nutrient levels were considered less that ideal for optimal growth of maize plants.
Plant height was determined at 0, 7, 14, 21 and 28 days after treatment by measuring the length from the vertically extended longest leaf tip to the soil surface. The heights averaged across the 10 replicates are listed in Test Tables 1 and 2 for plants grown in Redi-Earth soil and Matapeake Soil/Sand, respectively.

[5] = Matapeake Soil/Sand, 0.2 mg a.i./pot
[6] = Matapeake Soil/Sand, 2.5 mg a.i./pot
[7] = Redi-Earth Soil, 0.2 mg a.i./pot
[8] = Redi-Earth Soil, 2.5 mg a.i./pot

O=c1c(-c2cccc(C(F)(F)F)c2)c([O-])[n+](Cc2cncnc2)c2ccccn12 [Compound 3, 2-hydroxy-4-oxo-1-(5-pyrimidinylmethyl)-3-[3-(trifluoromethyl)phenyl]-4H-pyrido[1,2-a]pyrimidinium inner salt]
crop vigor (visual rating, 0 to 200% scale, control = 100%) [1]: 100%
mortality at 10 ppm ([2]; sprayed at 10 ppm): ≥ 80%
mortality at 50 ppm ([2]; sprayed at 50 ppm): ≥ 80%
mortality at 250 ppm ([2]; sprayed at 250 ppm): ≥ 80%
mortality at 50 ppm ([3]; sprayed at 50 ppm): ≥ 80%
mortality at 250 ppm ([3]; sprayed at 250 ppm): ≥ 80%
Height (cm) at Days after Treatment 0 days [4, 5]: 22 cm
Height (cm) at Days after Treatment 7 days [4, 5]: 49 cm
Height (cm) at Days after Treatment 14 days [4, 5]: 66 cm
Height (cm) at Days after Treatment 21 days [4, 5]: 76 cm
Height (cm) at Days after Treatment 28 days [4, 5]: 87 cm
Height (cm) at Days after Treatment 0 days [4, 6]: 22 cm
Height (cm) at Days after Treatment 7 days [4, 6]: 46 cm
Height (cm) at Days after Treatment 14 days [4, 6]: 65 cm
Height (cm) at Days after Treatment 21 days [4, 6]: 78 cm
Height (cm) at Days after Treatment 28 days [4, 6]: 88 cm
Height (cm) at Days after Treatment 0 days [4, 7]: 22 cm
Height (cm) at Days after Treatment 7 days [4, 7]: 53 cm
Height (cm) at Days after Treatment 14 days [4, 7]: 85 cm
Height (cm) at Days after Treatment 21 days [4, 7]: 111 cm
Height (cm) at Days after Treatment 28 days [4, 7]: 131 cm
Height (cm) at Days after Treatment 0 days [4, 8]: 21 cm
Height (cm) at Days after Treatment 7 days [4, 8]: 53 cm
Height (cm) at Days after Treatment 14 days [4, 8]: 85 cm
Height (cm) at Days after Treatment 21 days [4, 8]: 111 cm
Height (cm) at Days after Treatment 28 days [4, 8]: 137 cm
growth enhancing effect on maize plants ([4]; pest-free environment, nutrient constrained, both soils, 0.2 or 2.5 mg per pot): little growth enhancing effect was noticeable
